Data reported in PubChem BioAssay AID1963981 (Molecular Pharmacology Branch, DTP, NCI, 2024).
pIC50: −log10 of the molar value.

Tested on: 354836-022-R-J1-PDC multicell spheroid viability
Assay: Anticancer human tumor 354836-022-R-J1-PDC patient-derived head and neck squamous cell carcinoma cell line growth inhibition [PI3K]
Conditions: for pIC50: curve of first compound; for viability, T/C: stronger effect = lower value
Procedure, shortened: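 Three cell types, namely tumor cells, endothelial cells and mesenchymal stem cells, formed each spheroid. Combinations with four PI3K inhibitors were screened at clinically achievable concentrations decreasing by half-log, and spheroid viability was recorded.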

[1] = second compound 0.00316 µM, first compound 0.0316 µM
[2] = second compound 0.00316 µM, first compound 0.1 µM
[3] = second compound 0.01 µM, first compound 0.0316 µM
[4] = second compound 0.01 µM, first compound 0.1 µM
[5] = second compound 0.0316 µM, first compound 0.0316 µM
[6] = second compound 0.0316 µM, first compound 0.1 µM
[7] = second compound 0.1 µM, first compound 0.0316 µM
[8] = second compound 0.1 µM, first compound 0.1 µM
[9] = second compound 0.316 µM, first compound 0.0316 µM
[10] = second compound 0.316 µM, first compound 0.1 µM
[11] = second compound 1 µM, first compound 0.0316 µM
[12] = second compound 1 µM, first compound 0.1 µM
[13] = second compound 0.00316 µM, first compound 0.316 µM
[14] = second compound 0.00316 µM, first compound 1 µM
[15] = second compound 0.00316 µM, first compound 3.16 µM
[16] = second compound 0.00316 µM, first compound 10 µM
[17] = second compound 0.01 µM, first compound 0.316 µM
[18] = second compound 0.01 µM, first compound 1 µM
[19] = second compound 0.01 µM, first compound 3.16 µM
[20] = second compound 0.01 µM, first compound 10 µM
[21] = second compound 0.0316 µM, first compound 0.316 µM
[22] = second compound 0.0316 µM, first compound 1 µM
[23] = second compound 0.0316 µM, first compound 3.16 µM
[24] = second compound 0.0316 µM, first compound 10 µM
[25] = second compound 0.1 µM, first compound 0.316 µM
[26] = second compound 0.1 µM, first compound 1 µM
[27] = second compound 0.1 µM, first compound 3.16 µM
[28] = second compound 0.1 µM, first compound 10 µM
[29] = second compound 0.316 µM, first compound 0.316 µM
[30] = second compound 0.316 µM, first compound 1 µM
[31] = second compound 0.316 µM, first compound 3.16 µM
[32] = second compound 0.316 µM, first compound 10 µM
[33] = second compound 1 µM, first compound 0.316 µM
[34] = second compound 1 µM, first compound 1 µM
[35] = second compound 1 µM, first compound 3.16 µM
[36] = second compound 1 µM, first compound 10 µM
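Further: spheroids exposed to agents for seven days before the viability read.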

CC(C)n1nc(-c2ccc3oc(N)nc3c2)c2c(N)ncnc21 + COc1c(OCCCN2CCOCC2)ccc2c3n(c(=NC(=O)c4cnc(N)nc4)nc12)CCN3
pIC50 (second compound 0.00316 µM): 7.94 | pIC50 (second compound 0.01 µM): 7.97 | pIC50 (second compound 0.0316 µM): 8.04 | pIC50 (second compound 0.1 µM): > 9.50 | pIC50 (second compound 0.316 µM): > 9.50 | pIC50 (second compound 1 µM): > 9.50 | viability, T/C (second compound 0.00316 µM, first compound 0.000316 µM): 103% | viability, T/C (second compound 0.00316 µM, first compound 0.001 µM): 70.8% | viability, T/C (second compound 0.00316 µM, first compound 0.00316 µM): 77.9% | viability, T/C (second compound 0.00316 µM, first compound 0.01 µM): 50.9% | viability, T/C [1]: 33% | viability, T/C [2]: 3.49% | viability, T/C (second compound 0.01 µM, first compound 0.000316 µM): 93.3% | viability, T/C (second compound 0.01 µM, first compound 0.001 µM): 86.8% | viability, T/C (second compound 0.01 µM, first compound 0.00316 µM): 67.7% | viability, T/C (second compound 0.01 µM, first compound 0.01 µM): 52.3% | viability, T/C [3]: 28.3% | viability, T/C [4]: 3.55% | viability, T/C (second compound 0.0316 µM, first compound 0.000316 µM): 67% | viability, T/C (second compound 0.0316 µM, first compound 0.001 µM): 70.8% | viability, T/C (second compound 0.0316 µM, first compound 0.00316 µM): 61.7% | viability, T/C (second compound 0.0316 µM, first compound 0.01 µM): 49% | viability, T/C [5]: 23.5% | viability, T/C [6]: 2.77% | viability, T/C (second compound 0.1 µM, first compound 0.000316 µM): 49% | viability, T/C (second compound 0.1 µM, first compound 0.001 µM): 48.2% | viability, T/C (second compound 0.1 µM, first compound 0.00316 µM): 36.4% | viability, T/C (second compound 0.1 µM, first compound 0.01 µM): 27.4% | viability, T/C [7]: 11.9% | viability, T/C [8]: 2.07% | viability, T/C (second compound 0.316 µM, first compound 0.000316 µM): 16.2% | viability, T/C (second compound 0.316 µM, first compound 0.001 µM): 9.69% | viability, T/C (second compound 0.316 µM, first compound 0.00316 µM): 8.47% | viability, T/C (second compound 0.316 µM, first compound 0.01 µM): 10.1% | viability, T/C [9]: 3.38% | viability, T/C [10]: 0.76% | viability, T/C (second compound 1 µM, first compound 0.000316 µM): 1.52% | viability, T/C (second compound 1 µM, first compound 0.001 µM): 1.5% | viability, T/C (second compound 1 µM, first compound 0.00316 µM): 1.64% | viability, T/C (second compound 1 µM, first compound 0.01 µM): 1.22% | viability, T/C [11]: 0.82% | viability, T/C [12]: 0.62%

CC1(C)CCC(CN2CCN(c3ccc(C(=O)NS(=O)(=O)c4ccc(NCC5CCOCC5)c([N+](=O)[O-])c4)c(Oc4cnc5[nH]ccc5c4)c3)CC2)=C(c2ccc(Cl)cc2)C1 + COc1c(OCCCN2CCOCC2)ccc2c3n(c(=NC(=O)c4cnc(N)nc4)nc12)CCN3
pIC50 (second compound 0.00316 µM): 5.35 | pIC50 (second compound 0.01 µM): 5.43 | pIC50 (second compound 0.0316 µM): 5.43 | pIC50 (second compound 0.1 µM): 5.76 | pIC50 (second compound 0.316 µM): > 7.50 | pIC50 (second compound 1 µM): > 7.50 | viability, T/C [1]: 85.4% | viability, T/C [2]: 97.5% | viability, T/C [13]: 97% | viability, T/C [14]: 96.5% | viability, T/C [15]: 69.2% | viability, T/C [16]: 5.16% | viability, T/C [3]: 92.6% | viability, T/C [4]: 87.3% | viability, T/C [17]: 95% | viability, T/C [18]: 95.5% | viability, T/C [19]: 58% | viability, T/C [20]: 4.01% | viability, T/C [5]: 69% | viability, T/C [6]: 76.2% | viability, T/C [21]: 78.8% | viability, T/C [22]: 79% | viability, T/C [23]: 58% | viability, T/C [24]: 3.73% | viability, T/C [7]: 58.9% | viability, T/C [8]: 50.6% | viability, T/C [25]: 49% | viability, T/C [26]: 61.7% | viability, T/C [27]: 44.6% | viability, T/C [28]: 2.56% | viability, T/C [9]: 12.8% | viability, T/C [10]: 12.5% | viability, T/C [29]: 13.7% | viability, T/C [30]: 14.3% | viability, T/C [31]: 7.93% | viability, T/C [32]: 1.71% | viability, T/C [11]: 1.99% | viability, T/C [12]: 1.2% | viability, T/C [33]: 1.79% | viability, T/C [34]: 1.5% | viability, T/C [35]: 1.66% | viability, T/C [36]: 0.72%

C[C@@H](NC(=O)c1ncnc(N)c1Cl)c1ncc(C(=O)Nc2cc(C(F)(F)F)c(Cl)cn2)s1 + COc1c(OCCCN2CCOCC2)ccc2c3n(c(=NC(=O)c4cnc(N)nc4)nc12)CCN3
pIC50 (second compound 0.00316 µM): < 5.00 | pIC50 (second compound 0.01 µM): < 5.00 | pIC50 (second compound 0.0316 µM): < 5.00 | pIC50 (second compound 0.1 µM): < 5.00 | pIC50 (second compound 0.316 µM): > 7.50 | pIC50 (second compound 1 µM): > 7.50 | viability, T/C [1]: 91.8% | viability, T/C [2]: 112% | viability, T/C [13]: 96.9% | viability, T/C [14]: 109% | viability, T/C [15]: 98.5% | viability, T/C [16]: 97% | viability, T/C [3]: 105% | viability, T/C [4]: 101% | viability, T/C [17]: 96.5% | viability, T/C [18]: 119% | viability, T/C [19]: 102% | viability, T/C [20]: 78.1% | viability, T/C [5]: 76% | viability, T/C [6]: 81.8% | viability, T/C [21]: 86.5% | viability, T/C [22]: 86.9% | viability, T/C [23]: 84.2% | viability, T/C [24]: 71.5% | viability, T/C [7]: 58.2% | viability, T/C [8]: 43.7% | viability, T/C [25]: 55.6% | viability, T/C [26]: 55% | viability, T/C [27]: 55.1% | viability, T/C [28]: 47.9% | viability, T/C [9]: 11.2% | viability, T/C [10]: 14.4% | viability, T/C [29]: 13.4% | viability, T/C [30]: 18% | viability, T/C [31]: 24.4% | viability, T/C [32]: 9.94% | viability, T/C [11]: 2.2% | viability, T/C [12]: 1.73% | viability, T/C [33]: 1.92% | viability, T/C [34]: 1.84% | viability, T/C [35]: 2.33% | viability, T/C [36]: 1.65%
